Reference: PMC4805609, “Estrogenic Effects of Several BPA Analogs in the Developing Zebrafish Brain” (Frontiers in Neuroscience, 2016)
Read-outs that look alike come from different tables or passages of the source.

Legend:
[1] = system: cyp19a1b transcripts; assay: cyp19a1b in situ hybridization on 7-dpf brain sections; type: in vivo, zebrafish; settings: 7-dpf larvae; for distribution of cyp19a1b transcripts in the whole brain: transverse sections
Protocol: (§1) For subsequent RT-qPCR and in situ hybridization analysis with wild type zebrafish, groups of 80 embryos (for each condition) were placed after 1 day post-fertilization (1-dpf) in a large glass flask containing 100 ml of embryonic medium (Mouriec et al., [2009b]). […] The embryos were held in the exposure flasks until 7-dpf larva stage. […] Embryos were maintained in the exposure dishes until 4-dpf larva stage. During the treatment period, 100% of the exposure medium was renewed every 24 h (for both wild type and transgenic zebrafish).
Larvae used for in situ hybridization experiments originated from the same exposition groups than RT-qPCR experiments. After exposure to the different conditions, 10 wild type 7-dpf larvae (for each treatment) were fixed overnight at 4°C in 4% paraformaldehyde, before embedding in parrafin. Serial thin transverse sections ([…]) were placed on cryofrost slides and subjected to in situ hybridization experiments. Sense and antisense digoxigenin-labeled riboprobes for the cyp19a1b gene were transcribed using the Digoxigenin RNA labeling kit in accordance with the manufacturer's instructions (Roche, Mannheim, Germany) and as previously described (Menuet et al., [2005]). The brain sections were processed for in situ hybridization using stringent conditions as previously published (D'Amico et al., [2011], [2013]). After NBT/BCIP revelation, sections were counterstained with DAPI, and mounted in a drop of vectashield (Vector Laboratories). All sections were photographed with an Olympus PROVIS AX70 microscope with a digital camera (Olympus SP71), or a Nikon multizoom AZ100 macroscope with a DS-Ri1 color camera.

[2] = target: T1, zfERβ1 (Danio rerio, UniProt Q5PR29); assay: cyp19a1b-luciferase reporter gene assay in U251-MG glial cells transfected with zfERβ1; type: cell-based, zebrafish; settings: 10–9 M, 24 h, U251-MG cells with ERβ1, vs DMSO
T1 sequence (Q5PR29 1-592): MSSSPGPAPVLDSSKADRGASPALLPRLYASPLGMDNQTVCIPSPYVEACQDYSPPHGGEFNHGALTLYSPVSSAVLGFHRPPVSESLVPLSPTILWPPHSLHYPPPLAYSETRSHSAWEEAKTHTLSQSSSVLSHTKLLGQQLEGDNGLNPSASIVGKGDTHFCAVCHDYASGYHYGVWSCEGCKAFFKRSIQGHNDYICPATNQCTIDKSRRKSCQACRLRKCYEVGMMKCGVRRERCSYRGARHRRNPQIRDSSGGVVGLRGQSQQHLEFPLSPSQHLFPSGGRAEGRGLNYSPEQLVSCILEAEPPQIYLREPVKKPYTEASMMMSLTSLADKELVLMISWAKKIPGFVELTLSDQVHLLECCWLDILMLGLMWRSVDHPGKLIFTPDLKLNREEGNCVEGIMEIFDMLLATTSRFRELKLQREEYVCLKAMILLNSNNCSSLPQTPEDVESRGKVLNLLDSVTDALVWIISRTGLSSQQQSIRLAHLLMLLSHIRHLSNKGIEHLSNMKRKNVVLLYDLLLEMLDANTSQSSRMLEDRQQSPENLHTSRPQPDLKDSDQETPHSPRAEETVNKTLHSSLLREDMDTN
Text: The zfER-α, zfER-β1, and zfER-β2 expression vectors correspond to Topo-pcDNA3 expression vector (Invitrogen, San Diego, CA, USA), containing the coding regions of each zebrafish estrogen receptor cDNA as previously described (Menuet et al., [2002]). The cyp19a1b-Luciferase plasmid consists of 500 bp of the proximal promoter region of zebrafish cyp19a1b gene, containing an ERE, coupled to the luciferase reporter gene (Menuet et al., [2002]).
(§2) Human U251-MG glial cells were maintained in phenol red-free Dulbecco's Modified Eagle's Medium (DMEM; Life Technologies, Saint Aubin, France) supplemented with 10% fetal calf serum (Biowest, Nuaillé, France), 4 mM L-Glutamine (Gibco, Carlsbad, CA, USA) and 1 mM Na-Pyruvate (Life Technologies, Saint Aubin, France) and kept at 37°C and 5% CO2 atmosphere (Le Page et al., [2006]). The medium was also supplemented with 20 U/mL penicillin, 20 μg/mL streptomycin, and 50 ng/mL amphotericin B (Gibco). For transfections, cells were plated in 24-well plates at a density of 25,000 cells/ml in the same medium, except the fetal calf serum was charcoal-treated and used at a concentration of 2.5%. Cells were transfected with 25 ng/well either the vector expression containing or not the zfERα, zfERβ1, zfERβ2 coding region and cytomegalovirus [CMV]−β-Galactosidase, and 150 ng/well of the cyp19a1b-Luciferase reporter plasmid, using JetPEI as a transfection reagent (Polyplus Transfection, Illkirch, France). […] Luciferase activity was measured 24 h later (Luciferase assay system, Promega, Madison, WI, USA). β-Galactosidase activity was used to normalize transfection efficiency. Chemicals were tested in at least 3 independent experiments and each experiment was performed in triplicate.

[3] = target: zfERβ2 (Danio rerio, UniProt Q7ZU32); assay: cyp19a1b-luciferase reporter gene assay in U251-MG glial cells transfected with zfERβ2; type: cell-based, zebrafish; settings: 10–9 M, 24 h, U251-MG cells with ERβ2, vs DMSO
Chain of zfERβ2 (Q7ZU32 1-553): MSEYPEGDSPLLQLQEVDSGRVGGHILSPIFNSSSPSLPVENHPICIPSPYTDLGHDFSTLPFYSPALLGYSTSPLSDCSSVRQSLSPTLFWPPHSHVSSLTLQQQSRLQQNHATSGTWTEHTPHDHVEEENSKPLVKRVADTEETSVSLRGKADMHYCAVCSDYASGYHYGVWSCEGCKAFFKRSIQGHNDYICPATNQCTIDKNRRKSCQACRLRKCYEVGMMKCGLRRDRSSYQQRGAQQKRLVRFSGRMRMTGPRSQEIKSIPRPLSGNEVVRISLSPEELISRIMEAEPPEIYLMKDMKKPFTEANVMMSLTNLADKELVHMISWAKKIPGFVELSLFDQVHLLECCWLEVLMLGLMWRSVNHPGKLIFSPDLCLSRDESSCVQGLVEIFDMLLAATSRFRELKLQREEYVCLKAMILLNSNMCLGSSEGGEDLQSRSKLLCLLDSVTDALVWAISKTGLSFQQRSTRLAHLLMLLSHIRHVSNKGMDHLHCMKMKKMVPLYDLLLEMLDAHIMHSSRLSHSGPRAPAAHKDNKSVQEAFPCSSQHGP
Protocol: as §2, with “The” for “Human U251-MG glial cells were maintained in phenol red-free Dulbecco's Modified Eagle's Medium (DMEM; Life Technologies, Saint Aubin, France) supplemented with 10% fetal calf serum (Biowest, Nuaillé, France), 4 mM L-Glutamine (Gibco, Carlsbad, CA, USA) and 1 mM Na-Pyruvate (Life Technologies, Saint Aubin, France) and kept at 37°C and 5% CO2 atmosphere (Le Page et al., [2006]). The”

[4] = system: cyp19a1b gene; assay: RT-qPCR of cyp19a1b transcripts in wild type 7-dpf larva brains
Protocol: as §1
Tissue was sonicated (10 s, 3 times) in 250 μL Trizol Reagent (Invitrogen) and RNA extractions were carried out according to the manufacturer's protocol. Reverse transcription was carried out by incubating 2μg total RNA with 1μg of random primer oligonucleotides, 2.5ṁM dNTPs, and 50 U MMLV-RT (Promega) in the appropriate buffer for 10 min at 65°C and 60 min at 37°C. Quantitative Polymerase chain reaction (qPCR) experiments were performed in an iCycler thermocycler coupled to the MyiQ detector (Bio-Rad. Hercules, CA, USA) using iQ SYBR-Green Supermix (Bio-Rad) according to the manufacturer's protocol. The following primers were used: ef1 (fw) 5′-[…]-3′; ef1 (rev) 5′-[…]-3′; cyp19a1b (AroB; fw) 5′-[…] For each condition, the RT-PCR experiment was run in triplicates. Expression levels of ef1 mRNA were used to normalize cyp19a1b expression levels. Melting curve and PCR efficiency analyses were performed to confirm correct amplification. For quantification of PCR results, the threshold cycle (Ct) was determined for each reaction. Ct values for each gene of interest were normalized with the housekeeping gene ef1, using the ΔΔCt method. Normalized values were used to calculate the degree of induction or inhibition expressed as a “fold difference” compared to normalized control values.

[5] = system: zebrafish embryos/larvae; assay: Mortality, toxicity, teratogenicity and motility of exposed embryos/larvae; type: in vivo; settings: EE2 1 nM, BPA 0.1, 1, 10 μM; until 7-days larval stage; data not shown
[6] = target: T2, zfERα (Danio rerio, UniProt P57717); assay: competitive binding assay vs [3H]-E2 on in vitro translated zfERα; parameters: containing the coding regions of each zebrafish estrogen receptor cDNA; species or system zebrafish; settings: for receptor-binding activity: competition with [3H]-E2, ERα, Figure 8A; for IC50: displacement of 10^−9 M [3H]-E2, ERα
T2 sequence (P57717 1-569): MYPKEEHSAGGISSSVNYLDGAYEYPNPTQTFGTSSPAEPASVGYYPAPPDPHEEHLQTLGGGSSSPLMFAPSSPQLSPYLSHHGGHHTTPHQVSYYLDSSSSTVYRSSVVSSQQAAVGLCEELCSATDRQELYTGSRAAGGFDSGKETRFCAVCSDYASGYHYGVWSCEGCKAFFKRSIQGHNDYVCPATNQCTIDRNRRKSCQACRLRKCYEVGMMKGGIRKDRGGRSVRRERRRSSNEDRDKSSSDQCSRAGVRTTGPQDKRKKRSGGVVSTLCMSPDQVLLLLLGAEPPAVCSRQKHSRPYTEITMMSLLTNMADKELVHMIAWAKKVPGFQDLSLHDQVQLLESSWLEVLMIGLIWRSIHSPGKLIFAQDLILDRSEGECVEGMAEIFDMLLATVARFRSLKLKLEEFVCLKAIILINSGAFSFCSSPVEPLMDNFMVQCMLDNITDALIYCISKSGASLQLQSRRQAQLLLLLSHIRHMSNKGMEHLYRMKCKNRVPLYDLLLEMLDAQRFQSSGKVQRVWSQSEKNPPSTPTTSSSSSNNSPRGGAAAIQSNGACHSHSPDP
Protocol: We also performed a competitive binding assay to test the binding properties of our compounds of interest with the three zfERs (Blair et al., [2000]). The three zebrafish estrogen receptor proteins were synthesized using the Topo-pcDNA3 expression vector containing the coding region of zfERα, zfERβ1, and zfERβ2 (Menuet et al., [2002]). The TNT Quick Coupled Transcription/Translation Systems kit (Promega, Madison, WI, USA) was used for synthesis of zfER proteins by adding 1 μg of each ER expression vector and according to the manufacturer's protocol. […] IC50 were calculated using GraphPad Prism, version 6.07.

[7] = system: cyp19a1b promoter; assay: EASZY assay: GFP fluorescence in brain of live cyp19a1b-GFP transgenic 4-dpf larvae; type: in vivo, zebrafish; settings: 4-dpf cyp19a1b-GFP larvae, exposure 2 hpf to 4 dpf
Protocol: Quantification of fluorescence in transgenic cyp19a1b-GFP zebrafish larva brain was performed according to Brion et al. ([2012]). In this assay, estrogenic activity is detected in living 4 days-old larvae (treated or not with an estrogen mimic compound) from the observation of the reporter gene fluorescence in the radial glial cells. […] All photographs were taken using the same parameters: only the head was photographed under a X10 objective, with a 134 ms exposure time and maximal intensity. Photographs were analyzed using the Axiovision Imaging software and fluorescence quantification was performed using the ImageJ software (http://rsbweb.nih.gov/ij/). For each picture, the integrated density was measured, i.e., the sum of the gray-values of all the pixels within the region of interest. A gray-value of 290 was defined as background value. For each micrograph the fluorescence fold induction of fluorescence was calculated comparing the integrated pixel density with the average fluorescence induction obtained in the control group.

[8] = target: T2, zfERα; assay: cyp19a1b-luciferase reporter gene assay in U251-MG glial cells transfected with zfERα; type: cell-based, zebrafish; parameters: containing the coding regions of each zebrafish estrogen receptor cDNA; expressed in transfected cells; host or cells: human U251-MG glial cells (ER-negative); settings: for cyp19a1b-luciferase reporter gene induction: 10–6 M, 24 h, U251-MG cells with ERα, vs DMSO
Protocol: as §2, with “The” for “Human U251-MG glial cells were maintained in phenol red-free Dulbecco's Modified Eagle's Medium (DMEM; Life Technologies, Saint Aubin, France) supplemented with 10% fetal calf serum (Biowest, Nuaillé, France), 4 mM L-Glutamine (Gibco, Carlsbad, CA, USA) and 1 mM Na-Pyruvate (Life Technologies, Saint Aubin, France) and kept at 37°C and 5% CO2 atmosphere (Le Page et al., [2006]). The”

C#C[C@]1(O)CC[C@H]2[C@@H]3CCc4cc(O)ccc4[C@H]3CC[C@@]21C [EE2, 17α-ethinylestradiol, reference compound]
distribution of cyp19a1b transcripts in the whole brain ([1]; EE2 1 nM): massive over-expression of the cyp19a1b transcripts
cyp19a1b-luciferase reporter gene induction [2]: strong induction
cyp19a1b-luciferase reporter gene induction [3]: strong induction

CC(C)(c1ccc(O)cc1)c1ccc(O)cc1 [BPA, 2,2-bis(4-hydroxyphenyl)propane, reference compound]
fold induction at 0.1 µM ([4]; Danio rerio, read-out: cyp19a1b gene expression, fold induction relative to DMSO, 0.1 μM, 7-dpf larvae brains, Figure 1A): 9
fold induction at 1 µM ([4]; Danio rerio, read-out: cyp19a1b gene expression, fold induction relative to DMSO, 1 μM, 7-dpf larvae brains, Figure 1A): ~20
fold induction at 1 µM ([4]; Danio rerio, read-out: cyp19a1b gene expression, fold induction relative to DMSO, 1 μM, 7-dpf larvae brains, six independent exposures, Figure 1B): ~36
fold induction at 10 µM ([4]; Danio rerio, read-out: cyp19a1b gene expression, fold induction relative to DMSO, 10 μM, 7-dpf larvae brains, Figure 1A): 12
cyp19a1b transcripts in the nucleus recessus posterioris (nrp), caudal hypothalamus ([1]; 1 μM): strong levels of cyp19a1b transcripts
distribution of cyp19a1b transcripts in the whole brain ([1]; 1 μM): strong presence of cyp19a1b transcripts in virtually identical regions than EE2-treated larvae
toxic or teratogenic effect [5]: did not caused notable toxicological effects
receptor-binding activity [6]: bind in vitro to ERα receptor
IC50 [6]: 2.8 µM
fold induction at 1 µM ([7]; Danio rerio, read-out: GFP fluorescence, fold induction above DMSO control): 16
cyp19a1b-luciferase reporter gene induction [8]: significant stimulation

Oc1ccc(Cc2ccc(O)cc2)cc1 [BPF, 4,4′-dihydroxydiphenyl methane]
cyp19a1b gene expression, fold induction relative to DMSO ([4]; 1 μM, 7-dpf larvae brains, six independent exposures, Figure 1B): 20 fold
distribution of cyp19a1b transcripts in the whole brain ([1]; 1 μM): identical to EE2- and BPA-treated animals
receptor-binding activity [6]: bind in vitro to ERα receptor
IC50 [6]: 10.6 µM
GFP fluorescence, fold induction above DMSO control ([7]; 1 μM): 13 fold
cyp19a1b-luciferase reporter gene induction [8]: increased luciferase activity in ERα cells, but the stimulation did not reach statistical significance

C[C@]12CC[C@@H]3c4ccc(O)cc4C[C@@H](CCCCCCCCC[S+]([O-])CCCC(F)(F)C(F)(F)F)[C@H]3[C@@H]1CC[C@@H]2O (stereo partly drawn) [ICI, reference compound]
effect on BPA, BPF and BPAF stimulations of cyp19a1b-luciferase ([8]; simultaneous treatment, ERα-expressing U251-MG cells, Figure 7B): completely abolished
